Measured values published in patent US9963439B2, “Specific inhibitors of cytochrome P450 26 retinoic acid hydroxylase” (University of Washington Through its Center for …, priority 2013, dated 2018).

Test system: cytochromes involved in the biosynthetic pathways of testicular, ovarian and adrenal steroids
Experiment: not given
Settings: Berth-Jones 2000; Bruynseels 1990; cited from earlier work

Row | Compound | inhibition of other cytochromes of steroid biosynthesis
1 | Clc1cccc(C(c2ccc3[nH]cnc3c2)n2ccnc2)c1 (stereo not shown) [liarozole] | also inhibits other cytochromes involved in the biosynthetic pathways of testicular, ovarian and adrenal steroids

Target: CYP26A1 (Homo sapiens (Human), UniProt O43174)
Experiment: CYP26A1 inhibition assay (9-cis-4-OH-RA formation from 9-cis-RA, recombinant microsomes)
Format: biochemical
Settings: Table 3, unit inferred; read-out: CYP26A1 (IC50)

Chain of CYP26A1 (O43174 whole entry): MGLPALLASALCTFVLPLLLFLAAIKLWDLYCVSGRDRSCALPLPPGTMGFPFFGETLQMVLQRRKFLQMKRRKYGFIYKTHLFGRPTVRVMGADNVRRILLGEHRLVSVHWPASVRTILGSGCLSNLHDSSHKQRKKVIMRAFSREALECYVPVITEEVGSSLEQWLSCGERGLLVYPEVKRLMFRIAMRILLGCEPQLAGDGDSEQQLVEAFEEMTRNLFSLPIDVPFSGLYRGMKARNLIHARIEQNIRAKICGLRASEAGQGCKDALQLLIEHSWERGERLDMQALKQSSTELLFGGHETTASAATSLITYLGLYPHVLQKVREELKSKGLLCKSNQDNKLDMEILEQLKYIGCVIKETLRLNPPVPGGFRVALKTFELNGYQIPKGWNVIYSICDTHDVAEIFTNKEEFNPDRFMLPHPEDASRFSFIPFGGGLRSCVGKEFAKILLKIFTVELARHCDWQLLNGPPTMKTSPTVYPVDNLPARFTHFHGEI

Row | IC50 [nM] | Compound
2 | 12300 | C=C(c1ccc(C(=O)O)cc1)c1cc2c(cc1C)C(C)(C)CCC2(C)C
3 | 3300 | CC1(C)CCC(C)(C)c2cc(C3(c4ccc(C(=O)O)cc4)OCCO3)ccc21 [drawing 145]
4 | 61 | CC1(C)CCC(C)(C)c2cc(C3(c4ccc5cc(C(=O)O)ccc5c4)SCCS3)ccc21 [drawing 146]

Same assay, conditions: Table 4, acidic compounds, unit inferred; read-out: CYP26A1 (IC50)

Row | IC50 [nM] | Compound
5 | 1280 | CC1(C)CCC(C)(C)c2cc(C3(c4ccc(C(=O)O)cc4)SCCS3)ccc21
6 | 109 | CC1(C)CCC(C)(C)c2cc(C3(c4ccc5cc(C(=O)O)ccc5c4)OCCO3)ccc21
7 | 7780 | CC1(C)CCC(C)(C)c2cc(C3(c4ccc(C(=O)O)cc4)OCCO3)ccc21 [drawing 148]
8 | 61 | CC1(C)CCC(C)(C)c2cc(C3(c4ccc5cc(C(=O)O)ccc5c4)SCCS3)ccc21 [drawing 152]

Same assay, conditions: Table 5; read-out: CYP26A1

Row | Compound | IC50 [nM]
9 | CC1(C)CCC(C)(C)c2cc(C3(c4ccc(CCC(=O)O)cc4)OCCO3)ccc21 | 340
10 | CC1(C)CCC(C)(C)c2cc(Cc3ccc(CCC(=O)O)cc3)ccc21 | > 10000
11 | CCC(CC)[C@H](c1ccc(Nc2nc3ccccc3s2)cc1)n1cncn1 [talarozole, (R)—N-[4-[2-ethyl-1-(1H-1,2,4-triazol-1-yl)butyl]phenyl]-2-benzo-thiazolamine] | 5.1

Other lines, results leading:

Row | IC50 [nM] | Compound
12 | 314 | O=C(O)CCc1ccc(-c2ccc(O)c(C34CC5CC(CC(C5)C3)C4)c2)cc1
13 | > 25000 | COc1ccc(-c2ccc(/C=C/C(=O)O)cc2)cc1C12CC3CC(CC(C3)C1)C2
14 | 729 | COc1ccc(Nc2ccc(/C=C/C(=O)O)cc2)cc1C12CC3CC(CC(C3)C1)C2
15 | 232 | O=C(O)/C=C/c1ccc(Nc2ccc(O)c(C34CC5CC(CC(C5)C3)C4)c2)cc1
16 | 51 | COc1ccc(Nc2ccc(CCC(=O)O)cc2)cc1C12CC3CC(CC(C3)C1)C2
17 | 1750 | O=C(O)CCc1ccc(Nc2ccc(O)c(C34CC5CC(CC(C5)C3)C4)c2)cc1
18 | 6 | CC1(C)CCC(C)(C)c2cc(C3(c4ccc(/C=C/C(=O)O)cc4)SCCS3)ccc21
19 | 239 | CC1(C)CCC(C)(C)c2cc(C3(c4ccc(/C=C/C(=O)O)cc4)OCCO3)ccc21

Same assay, conditions: at 100 μM; read-out: Maximum inhibition of CYP26A1 observed

Row | inhibition at 100 µM [%] | Compound
20 | 15 | CCOC(=O)c1ccc(C#Cc2ccc3c(c2)C(C)(C)CCS3)nc1
21 | 15 | COC(=O)c1ccc(OCC(=O)c2ccc3c(c2)C(C)(C)CCC3(C)C)cc1

Same assay, conditions: ratio of IC50 values, Table 2

Row | Compound | CYP26A1/CYP26B1
22 | CC1(C)CCC(C)(C)c2cc(C(O)COc3ccc(C(=O)O)cc3)ccc21 (stereo not shown) | 2
23 | CC1(C)CCC(C)(C)c2cc(/C(COc3ccc(C(=O)O)cc3)=N\O)ccc21 | 3
24 | CC1(C)CCSc2ccc(C#Cc3ccc(C(=O)O)cn3)cc21 | 47
25 | CC1(C)CCC(C)(C)c2cc(C#Cc3ccc(C(=O)O)cc3)ccc21 | 9
26 | COC(=O)c1ccc(OC/C(=N/O)c2ccc3c(c2)C(C)(C)CCC3(C)C)cc1 | 8
27 | COC(=O)c1ccc(OC/C(=N\O)c2ccc3c(c2)C(C)(C)CCC3(C)C)cc1 | 7

Continued, values first:

Row | CYP26A1/CYP26B1 | Compound
28 | 1.8 | CC1(C)CCC(C)(C)c2cc(NC(=O)c3ccc(C(=O)O)cc3)ccc21
29 | 2.5 | CC1(C)CCC(C)(C)c2cc(C(=O)Nc3ccc(C(=O)O)cc3)ccc21
30 | 1.1 | C/C(=C\c1ccc(C(=O)O)cc1)c1ccc2c(c1)C(C)(C)CCC2(C)C
31 | 4 | CC1(C)CCC(C)(C)c2cc(C(=O)COc3ccc(C(=O)O)cc3)ccc21
32 | 0.6 | CC1(C)C(=O)C(C)(C)c2cc(C(=O)Nc3ccc(C(=O)O)cc3)ccc21

Target: T1, CYP26B1 (Homo sapiens (Human), UniProt Q9NR63)
Experiment: Michaelis-Menten kinetics of RA hydroxylation by CYP26B1
Settings: not given

T1 sequence (Q9NR63 whole entry): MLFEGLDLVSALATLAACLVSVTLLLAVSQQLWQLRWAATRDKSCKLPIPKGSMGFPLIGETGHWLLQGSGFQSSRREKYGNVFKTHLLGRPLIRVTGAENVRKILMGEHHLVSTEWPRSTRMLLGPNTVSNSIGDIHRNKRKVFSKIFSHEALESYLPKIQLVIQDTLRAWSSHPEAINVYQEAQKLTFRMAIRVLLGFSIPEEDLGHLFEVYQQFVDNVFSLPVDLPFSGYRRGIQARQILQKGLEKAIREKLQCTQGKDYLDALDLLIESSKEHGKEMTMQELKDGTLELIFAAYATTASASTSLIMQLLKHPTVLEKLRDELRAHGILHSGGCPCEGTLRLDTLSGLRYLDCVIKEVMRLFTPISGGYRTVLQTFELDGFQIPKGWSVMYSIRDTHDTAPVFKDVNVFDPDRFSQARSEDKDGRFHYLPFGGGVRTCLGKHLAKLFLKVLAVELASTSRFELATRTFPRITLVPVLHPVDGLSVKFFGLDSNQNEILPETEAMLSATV

Row | Compound | Vmax for 9-cis-4-OH-RA formation by CYP26B1 [pmol/min/pmol P450] | fold greater Km than atRA for CYP26B1 [fold]
33 | CC1=C(/C=C/C(C)=C\C=C\C(C)=C\C(=O)O)C(C)(C)CCC1 [Example 9-cis-RA, 9-cis-RA] | 3.6 | 50

Same assay, conditions: from Km and Vmax

Row | Compound | intrinsic clearance [µL/min]
34 | CC1=C(/C=C/C(C)=C\C=C\C(C)=C\C(=O)O)C(C)(C)CCC1 [Example 9-cis-RA, 9-cis-RA] | 6.5

Same assay, conditions: read-out: Km for 9-cis-4-OH-RA formation by CYP26B1; substrate 9-cis-RA 50-1000 nM, 5 min

Row | Compound | Km [µM]
35 | CC1=C(/C=C/C(C)=C\C=C\C(C)=C\C(=O)O)C(C)(C)CCC1 [Example 9-cis-RA, 9-cis-RA] | 0.555

Same assay, conditions: read-out: Km of atRA for CYP26B1

Row | Km [µM] | Compound
36 | 0.019 | CC1=C(/C=C/C(C)=C/C=C/C(C)=C/C(=O)O)C(C)(C)CCC1 [atRA, all-trans-retinoic acid]

Target: CYP3A4 (Homo sapiens (Human), UniProt P08684)
Experiment: Inhibition of CYP3A4 in pooled human liver microsomes (midazolam probe)
Format: in vitro ADME
Settings: not given

Chain of CYP3A4 (P08684 whole entry): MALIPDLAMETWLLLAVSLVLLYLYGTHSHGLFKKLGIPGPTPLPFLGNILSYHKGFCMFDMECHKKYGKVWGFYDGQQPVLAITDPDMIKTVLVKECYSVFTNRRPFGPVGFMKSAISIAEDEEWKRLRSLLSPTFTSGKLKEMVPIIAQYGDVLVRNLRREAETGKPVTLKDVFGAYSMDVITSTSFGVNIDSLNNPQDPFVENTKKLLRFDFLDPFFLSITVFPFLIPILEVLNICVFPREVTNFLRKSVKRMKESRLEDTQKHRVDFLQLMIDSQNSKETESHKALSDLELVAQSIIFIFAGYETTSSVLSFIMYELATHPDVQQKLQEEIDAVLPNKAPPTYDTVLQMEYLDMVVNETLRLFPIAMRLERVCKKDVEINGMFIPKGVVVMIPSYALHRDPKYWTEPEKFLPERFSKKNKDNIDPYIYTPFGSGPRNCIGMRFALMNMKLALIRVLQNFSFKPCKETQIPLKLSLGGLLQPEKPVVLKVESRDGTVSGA

Row | Inhibition of CYP3A4 (in words) | Compound
37 | potent CYP3A4 inhibitors | CC(C(c1ccc(Nc2nc3ccccc3s2)cc1)n1ccnc1)N(C)C (stereo not shown) [Example R116010, R116010]
38 | weak inhibitor | Clc1cccc(C(c2ccc3[nH]cnc3c2)n2ccnc2)c1 (stereo not shown) [liarozole]
39 | nanomolar affinity | CCC(CC)[C@H](c1ccc(Nc2nc3ccccc3s2)cc1)n1cncn1 [talarozole, (R)—N-[4-[2-ethyl-1-(1H-1,2,4-triazol-1-yl)butyl]phenyl]-2-benzo-thiazolamine]

Test system: not given
Experiment: not given
Settings: animal models; cited from earlier work

Row | Compound | effect on concentration of atRA in vivo
40 | Clc1cccc(C(c2ccc3[nH]cnc3c2)n2ccnc2)c1 (stereo not shown) [liarozole] | increase the concentration of atRA in vivo
41 | CCC(CC)[C@H](c1ccc(Nc2nc3ccccc3s2)cc1)n1cncn1 [talarozole, (R)—N-[4-[2-ethyl-1-(1H-1,2,4-triazol-1-yl)butyl]phenyl]-2-benzo-thiazolamine] | increase the concentration of atRA in vivo

Target: CYP2C8 (Homo sapiens (Human), UniProt P10632)
Experiment: Inhibition of CYP2C8 in pooled human liver microsomes (paclitaxel probe)
Format: in vitro ADME
Settings: bound stated

Chain of CYP2C8 (P10632 whole entry): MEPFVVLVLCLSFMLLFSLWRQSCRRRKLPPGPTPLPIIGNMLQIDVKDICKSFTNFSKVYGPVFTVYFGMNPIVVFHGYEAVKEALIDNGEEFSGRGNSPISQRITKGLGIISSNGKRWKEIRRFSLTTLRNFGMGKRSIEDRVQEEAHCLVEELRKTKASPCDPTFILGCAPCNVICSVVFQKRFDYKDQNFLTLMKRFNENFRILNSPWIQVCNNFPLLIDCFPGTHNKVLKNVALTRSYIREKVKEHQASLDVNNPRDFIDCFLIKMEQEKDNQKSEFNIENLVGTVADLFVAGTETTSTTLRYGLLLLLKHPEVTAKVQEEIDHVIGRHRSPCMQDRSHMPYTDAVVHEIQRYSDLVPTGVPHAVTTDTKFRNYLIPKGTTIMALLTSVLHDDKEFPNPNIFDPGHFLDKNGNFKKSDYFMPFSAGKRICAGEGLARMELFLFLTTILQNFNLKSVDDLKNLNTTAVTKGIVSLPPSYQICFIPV

Row | IC50 [nM] | Compound
42 | > 1000 | CC(C(c1ccc(Nc2nc3ccccc3s2)cc1)n1ccnc1)N(C)C (stereo not shown) [Example R116010, R116010]

Same assay, conditions: pooled human liver microsomes

Row | Inhibition of CYP2C8 (in words) | Compound
43 | inhibited CYP2C8 potently | Clc1cccc(C(c2ccc3[nH]cnc3c2)n2ccnc2)c1 (stereo not shown) [liarozole]
44 | nanomolar affinity | CCC(CC)[C@H](c1ccc(Nc2nc3ccccc3s2)cc1)n1cncn1 [talarozole, (R)—N-[4-[2-ethyl-1-(1H-1,2,4-triazol-1-yl)butyl]phenyl]-2-benzo-thiazolamine]

Same assay, conditions: pooled human liver microsomes, paclitaxel 4 μM

Row | IC50 [nM] | Compound
45 | 1760 | CC(C(c1ccc(Nc2nc3ccccc3s2)cc1)n1ccnc1)N(C)C (stereo not shown) [Example R116010, R116010]
46 | 480 | Clc1cccc(C(c2ccc3[nH]cnc3c2)n2ccnc2)c1 (stereo not shown) [liarozole]
47 | 220 | CCC(CC)[C@H](c1ccc(Nc2nc3ccccc3s2)cc1)n1cncn1 [talarozole, (R)—N-[4-[2-ethyl-1-(1H-1,2,4-triazol-1-yl)butyl]phenyl]-2-benzo-thiazolamine]

Target: T1, CYP26B1
Experiment: CYP26B1 inhibition assay (9-cis-4-OH-RA formation from 9-cis-RA, recombinant microsomes)
Format: biochemical
Settings: Table 3, unit inferred; read-out: CYP2681 (CYP26B1, IC50)

Row | IC50 [nM] | Compound
48 | 4000 | C=C(c1ccc(C(=O)O)cc1)c1cc2c(cc1C)C(C)(C)CCC2(C)C
49 | 14200 | CC1(C)CCC(C)(C)c2cc(C3(c4ccc(C(=O)O)cc4)OCCO3)ccc21 [drawing 145]
50 | 1030 | CC1(C)CCC(C)(C)c2cc(C3(c4ccc5cc(C(=O)O)ccc5c4)SCCS3)ccc21 [drawing 146]

Same assay, conditions: Table 4, acidic compounds, unit inferred; read-out: CYP26B1 (IC50)

Row | IC50 [nM] | Compound
51 | 1090 | CC1(C)CCC(C)(C)c2cc(C3(c4ccc(C(=O)O)cc4)SCCS3)ccc21
52 | 1030 | CC1(C)CCC(C)(C)c2cc(C3(c4ccc5cc(C(=O)O)ccc5c4)OCCO3)ccc21
53 | 12600 | CC1(C)CCC(C)(C)c2cc(C3(c4ccc(C(=O)O)cc4)OCCO3)ccc21 [drawing 148]

Same assay, conditions: Table 5; read-out: CYP26B1

Row | Compound | IC50 [nM]
54 | CC1(C)CCC(C)(C)c2cc(C3(c4ccc(CCC(=O)O)cc4)OCCO3)ccc21 | 14500
55 | CC1(C)CCC(C)(C)c2cc(Cc3ccc(CCC(=O)O)cc3)ccc21 | 1660
56 | Clc1cccc(C(c2ccc3[nH]cnc3c2)n2ccnc2)c1 (stereo not shown) [liarozole] | 18
57 | CCC(CC)[C@H](c1ccc(Nc2nc3ccccc3s2)cc1)n1cncn1 [talarozole, (R)—N-[4-[2-ethyl-1-(1H-1,2,4-triazol-1-yl)butyl]phenyl]-2-benzo-thiazolamine] | 0.46

Second part, the molecule after the results:

Row | IC50 [nM] | Compound
58 | 516 | COc1ccc(-c2ccc(CCC(=O)O)cc2)cc1C12CC3CC(CC(C3)C1)C2
59 | 302 | O=C(O)CCc1ccc(-c2ccc(O)c(C34CC5CC(CC(C5)C3)C4)c2)cc1
60 | > 25000 | COc1ccc(-c2ccc(/C=C/C(=O)O)cc2)cc1C12CC3CC(CC(C3)C1)C2
61 | 87 | COc1ccc(Nc2ccc(/C=C/C(=O)O)cc2)cc1C12CC3CC(CC(C3)C1)C2
62 | 95 | O=C(O)/C=C/c1ccc(Nc2ccc(O)c(C34CC5CC(CC(C5)C3)C4)c2)cc1
63 | 51 | COc1ccc(Nc2ccc(CCC(=O)O)cc2)cc1C12CC3CC(CC(C3)C1)C2
64 | 108 | O=C(O)CCc1ccc(Nc2ccc(O)c(C34CC5CC(CC(C5)C3)C4)c2)cc1
65 | 4400 | CC1(C)CCC(C)(C)c2cc(C3(c4ccc(/C=C/C(=O)O)cc4)SCCS3)ccc21
66 | > 10000 | CC1(C)CCC(C)(C)c2cc(C3(c4ccc(/C=C/C(=O)O)cc4)OCCO3)ccc21

Target: CYP2C9 (Homo sapiens (Human), UniProt P11712)
Experiment: Inhibition of CYP2C9 in pooled human liver microsomes (diclofenac probe)
Settings: not given

Chain of CYP2C9 (P11712 whole entry): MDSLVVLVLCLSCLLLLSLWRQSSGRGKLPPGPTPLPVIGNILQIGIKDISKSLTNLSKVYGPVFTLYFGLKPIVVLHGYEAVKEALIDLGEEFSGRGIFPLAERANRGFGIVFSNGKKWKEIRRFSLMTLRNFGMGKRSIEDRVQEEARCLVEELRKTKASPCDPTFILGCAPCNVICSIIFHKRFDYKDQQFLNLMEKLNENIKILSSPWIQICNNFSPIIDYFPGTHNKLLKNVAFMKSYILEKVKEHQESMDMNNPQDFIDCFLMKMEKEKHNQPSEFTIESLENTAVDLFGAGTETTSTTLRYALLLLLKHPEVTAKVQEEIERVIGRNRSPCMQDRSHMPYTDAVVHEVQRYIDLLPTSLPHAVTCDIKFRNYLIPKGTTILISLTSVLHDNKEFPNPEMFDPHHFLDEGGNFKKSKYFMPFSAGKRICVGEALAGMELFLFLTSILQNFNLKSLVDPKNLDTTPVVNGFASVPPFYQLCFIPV

Row | IC50 [nM] | Compound
67 | > 1000 | CC(C(c1ccc(Nc2nc3ccccc3s2)cc1)n1ccnc1)N(C)C (stereo not shown) [Example R116010, R116010]

Same assay, conditions: pooled human liver microsomes

Row | Inhibition of CYP2C9 (in words) | Compound
68 | weak inhibitor | Clc1cccc(C(c2ccc3[nH]cnc3c2)n2ccnc2)c1 (stereo not shown) [liarozole]
69 | nanomolar affinity | CCC(CC)[C@H](c1ccc(Nc2nc3ccccc3s2)cc1)n1cncn1 [talarozole, (R)—N-[4-[2-ethyl-1-(1H-1,2,4-triazol-1-yl)butyl]phenyl]-2-benzo-thiazolamine]

Same assay, conditions: read-out: CYP2C9 IC50 nM; pooled human liver microsomes, diclofenac 5 μM

Row | IC50 [nM] | Compound
70 | 5760 | CC(C(c1ccc(Nc2nc3ccccc3s2)cc1)n1ccnc1)N(C)C (stereo not shown) [Example R116010, R116010]
71 | 1630 | Clc1cccc(C(c2ccc3[nH]cnc3c2)n2ccnc2)c1 (stereo not shown) [liarozole]
72 | 680 | CCC(CC)[C@H](c1ccc(Nc2nc3ccccc3s2)cc1)n1cncn1 [talarozole, (R)—N-[4-[2-ethyl-1-(1H-1,2,4-triazol-1-yl)butyl]phenyl]-2-benzo-thiazolamine]
